“And” between values parts separate entries of the source, which are not always exact repeats. Equal entries are not always repeated. Inconclusive results and toxic doses are left out.
Test system: L1210 leukemia ip in BDF1 mice, survival T/C
Test: NCI In Vivo Anticancer Drug Screen. Data for tumor model L1210 Leukemia (intraperitoneal) in B6D2F1 (BDF1) mice
Settings: endpoint: mean survival time, higher = longer survival
Summary of the method: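 Mice bearing the transplanted tumor received compound or vehicle. Survival of the treated group was divided by that of the vehicle-treated control group to give the ratio.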

[1] = dose: 100.0 mg/kg/injection, schedule: Q01DX009 (ip), vehicle: Klucel (hydroxypropylcellulose) (HPC)
[2] = dose: 200.0 mg/kg/injection, schedule: Q01DX009 (ip), vehicle: Klucel (hydroxypropylcellulose) (HPC)
[3] = dose: 400.0 mg/kg/injection, schedule: Q01DX009 (ip), vehicle: Klucel (hydroxypropylcellulose) (HPC)
[4] = dose: 100.0 mg/kg/injection, schedule: Q04DX003 (ip), vehicle: Klucel (hydroxypropylcellulose) (HPC)
[5] = dose: 200.0 mg/kg/injection, schedule: Q04DX003 (ip), vehicle: Klucel (hydroxypropylcellulose) (HPC)
[6] = dose: 50.0 mg/kg/injection, schedule: Q01DX001 (ip), vehicle: carboxymethylcellulose (CMC)
[7] = dose: 100.0 mg/kg/injection, schedule: Q01DX001 (ip), vehicle: carboxymethylcellulose (CMC)
[8] = dose: 200.0 mg/kg/injection, schedule: Q01DX001 (ip), vehicle: carboxymethylcellulose (CMC)
[9] = dose: 400.0 mg/kg/injection, schedule: Q01DX001 (ip), vehicle: carboxymethylcellulose (CMC)
[10] = dose: 100.0 mg/kg/injection, schedule: Q04DX002 (ip), vehicle: Klucel (hydroxypropylcellulose) (HPC)
[11] = dose: 200.0 mg/kg/injection, schedule: Q04DX002 (ip), vehicle: Klucel (hydroxypropylcellulose) (HPC)
[12] = dose: 400.0 mg/kg/injection, schedule: Q04DX002 (ip), vehicle: Klucel (hydroxypropylcellulose) (HPC)

In the case of O=C1CCOc2ccc3ccccc3c21, the T/C (dose: 100.0 mg/kg/injection, schedule: Q01DX001 (ip), vehicle: Klucel (hydroxypropylcellulose) (HPC)) is reported as 101 % of control, the T/C [1] is reported as 109 % of control and the T/C (dose: 200.0 mg/kg/injection, schedule: Q01DX001 (ip), vehicle: Klucel (hydroxypropylcellulose) (HPC)) is reported as 98 % of control. For the same molecule, the T/C [2] was 101 % of control, the T/C (dose: 400.0 mg/kg/injection, schedule: Q01DX001 (ip), vehicle: Klucel (hydroxypropylcellulose) (HPC)) was 90 % of control and the T/C [3] was 111 % of control.
For Cc1cnc2no[n+]([O-])c2c1, the T/C [4] was 101 % of control and the T/C [5] was 102 % of control.
For CCC1(C)OC(C)C(C)O1 (configuration not stated), the T/C (dose: 50.0 mg/kg/injection, schedule: Q01DX009 (ip), vehicle: saline) was 100 % of control, the T/C (dose: 100.0 mg/kg/injection, schedule: Q01DX009 (ip), vehicle: saline) was 107 % of control and the T/C (dose: 200.0 mg/kg/injection, schedule: Q01DX009 (ip), vehicle: saline) was 104 % of control.
With O=C(NCC(O)CNC(=O)Nc1ccc(C2=NCCN2)cc1)Nc1ccc(C2=NCCN2)cc1 the T/C (dose: 3.75 mg/kg/injection, schedule: Q01DX Z (ip), vehicle: carboxymethylcellulose (CMC)) was 97 % of control, the T/C (dose: 15.0 mg/kg/injection, schedule: Q01DX Z (ip), vehicle: carboxymethylcellulose (CMC)) was 244 % of control and the T/C (dose: 21.0 mg/kg/injection, schedule: Q01DX Z (ip), vehicle: carboxymethylcellulose (CMC)) was 216 % of control. The T/C (dose: 30.0 mg/kg/injection, schedule: Q01DX Z (ip), vehicle: carboxymethylcellulose (CMC)) was 164 % of control, the T/C (dose: 62.0 mg/kg/injection, schedule: Q01DX Z (oral), vehicle: carboxymethylcellulose (CMC)) was 110 % of control and the T/C (dose: 84.0 mg/kg/injection, schedule: Q01DX Z (ip), vehicle: carboxymethylcellulose (CMC)) was 104 % of control. For the same molecule, the T/C (dose: 125.0 mg/kg/injection, schedule: Q01DX Z (oral), vehicle: carboxymethylcellulose (CMC)) was 108 % of control, the T/C (dose: 250.0 mg/kg/injection, schedule: Q01DX Z (oral), vehicle: carboxymethylcellulose (CMC)) was 104 % of control and the T/C (dose: 500.0 mg/kg/injection, schedule: Q01DX Z (oral), vehicle: carboxymethylcellulose (CMC)) was 97 % of control.
For CC12CC(O)C3c4ccc(O)cc4CCC3C1CCC2=O (configuration not stated), the T/C [6] was 106 % of control, the T/C [7] was 98 % of control and the T/C [8] was 104 % of control. The T/C [9] was 104 % of control.
For CCOC(=O)Nc1cc(NC(C)CCCN(CC)CC)c2ncc(-c3ccc(Cl)c(Cl)c3)nc2n1 (configuration not stated) (tested in a mixture with another compound), the T/C (dose: 6.25 mg/kg/injection, schedule: Q01DX001 (ip), vehicle: saline) was 99 % of control, the T/C (dose: 6.25 mg/kg/injection, schedule: Q01DX009 (ip), vehicle: saline) was 91 % of control and the T/C (dose: 12.5 mg/kg/injection, schedule: Q01DX001 (ip), vehicle: saline) was 101 % of control. For the same molecule, the T/C (dose: 12.5 mg/kg/injection, schedule: Q01DX009 (ip), vehicle: saline) was 95 % of control, the T/C (dose: 25.0 mg/kg/injection, schedule: Q01DX001 (ip), vehicle: saline) was 89 % of control and the T/C (dose: 25.0 mg/kg/injection, schedule: Q01DX009 (ip), vehicle: saline) was 106 % of control. For the same molecule, the T/C (dose: 100.0 mg/kg/injection, schedule: Q01DX001 (ip), vehicle: saline) was 103 % of control.
For O=C(O)C1Cc2nc[nH]c2CN1CO (configuration not stated), the T/C (dose: 12.5 mg/kg/injection, schedule: Q01DX009 (ip), vehicle: saline with Tween-80) was 122 % of control, the T/C (dose: 25.0 mg/kg/injection, schedule: Q01DX009 (ip), vehicle: saline with Tween-80) was 113 % of control and the T/C (dose: 100.0 mg/kg/injection, schedule: Q01DX009 (ip), vehicle: saline with Tween-80) was 263 % of control.
O=C(NCCCCCCNC(=O)N1CC1)N1CC1 was tested, and the T/C (dose: 0.08 mg/kg/injection, schedule: Q01DX009 (ip), vehicle: saline) was 107 % of control, the T/C (dose: 0.15 mg/kg/injection, schedule: Q01DX009 (ip), vehicle: saline) was 97 % of control and the T/C (dose: 0.19 mg/kg/injection, schedule: Q01DX009 (ip), vehicle: saline) was 122 % of control. For the same molecule, the T/C (dose: 0.3 mg/kg/injection, schedule: Q01DX009 (ip), vehicle: saline) was 119 % of control, the T/C (dose: 0.4 mg/kg/injection, schedule: Q04DX003 (ip), vehicle: saline) was 113 % of control and the T/C (dose: 0.66 mg/kg/injection, schedule: Q01DX009 (ip), vehicle: saline) was 168 % of control. For the same molecule, the T/C (dose: 0.8 mg/kg/injection, schedule: Q04DX003 (ip), vehicle: saline) was 115 % of control, the T/C (dose: 1.4 mg/kg/injection, schedule: Q01DX009 (ip), vehicle: saline) was 117 % of control and the T/C (dose: 1.7 mg/kg/injection, schedule: Q01DX001 (ip), vehicle: saline) was 121 % of control. For the same molecule, the T/C (dose: 2.2 mg/kg/injection, schedule: Q01DX009 (ip), vehicle: saline) was 86 % of control, the T/C (dose: 2.5 mg/kg/injection, schedule: Q04DX003 (ip), vehicle: saline) was 166 % of control and the T/C (dose: 3.75 mg/kg/injection, schedule: Q01DX001 (ip), vehicle: saline) was 150 % of control.
In the case of COC(=O)c1ccc(C(=O)CC(=O)c2ccccc2)cc1.COC(=O)c1ccc(C(=O)CC(=O)c2ccccc2)cc1.COC(=O)c1ccc(C(=O)CC(=O)c2ccccc2)cc1.COC(=O)c1ccc(C(=O)CC(=O)c2ccccc2)cc1.COC(=O)c1ccc(C(=O)CC(=O)c2ccccc2)cc1.[Th], the T/C (dose: 25.0 mg/kg/injection, schedule: Q01DX005 (ip), vehicle: Klucel (hydroxypropylcellulose) (HPC)) is reported as 89 % of control, the T/C (dose: 25.0 mg/kg/injection, schedule: Q01DX009 (ip), vehicle: Klucel (hydroxypropylcellulose) (HPC)) is reported as 100 % of control and the T/C (dose: 50.0 mg/kg/injection, schedule: Q01DX005 (ip), vehicle: Klucel (hydroxypropylcellulose) (HPC)) is reported as 93 % of control. The T/C (dose: 50.0 mg/kg/injection, schedule: Q01DX009 (ip), vehicle: Klucel (hydroxypropylcellulose) (HPC)) was 100 % of control, the T/C (dose: 100.0 mg/kg/injection, schedule: Q01DX005 (ip), vehicle: Klucel (hydroxypropylcellulose) (HPC)) was 93 % of control and 89 % of control and the T/C [1] was 93 % of control. The T/C [10] was 96 % of control, the T/C [11] was 100 % of control and the T/C [12] was 93 % of control.
In the case of CCN(CC)c1ccc(N=C2C=C(C(=O)Nc3ccccc3)C(=O)c3ccccc32)cc1, the T/C (dose: 100.0 mg/kg/injection, schedule: Q01DX001 (ip), vehicle: other) is reported as 86 % of control, the T/C (dose: 200.0 mg/kg/injection, schedule: Q01DX001 (ip), vehicle: other) is reported as 89 % of control and the T/C (dose: 400.0 mg/kg/injection, schedule: Q01DX001 (ip), vehicle: other) is reported as 88 % of control.
In the case of CCOC(=O)CCc1c(C(=O)OCC)[nH]c2ccc(Cl)cc12, the T/C [10] is reported as 96 % of control, the T/C [11] is reported as 100 % of control and the T/C [12] is reported as 96 % of control.
For CCOC(=O)c1ccc(NC(=O)Oc2ccccc2F)cc1, the T/C [1] was 91 % of control, the T/C [2] was 98 % of control and the T/C [3] was 96 % of control.
Nc1ccc(S(=O)(=O)Nc2cccc3ccccc23)cc1 was tested, and the T/C [1] was 100 % of control, the T/C [4] was 90 % of control and the T/C [2] was 99 % of control. For the same molecule, the T/C [5] was 92 % of control, the T/C [3] was 101 % of control and the T/C (dose: 400.0 mg/kg/injection, schedule: Q04DX003 (ip), vehicle: Klucel (hydroxypropylcellulose) (HPC)) was 95 % of control.
With COc1ccc(OC)c2c(OC(C)=O)c3ccccc3c(OC(C)=O)c12 the T/C [6] was 98 % of control, the T/C [7] was 108 % of control and the T/C [8] was 98 % of control. For the same molecule, the T/C [9] was 110 % of control.
CC1(C)C2CCC(C2)C1C(=O)O (configuration not stated) was tested, and the T/C (dose: 100.0 mg/kg/injection, schedule: Q04DX003 (ip), vehicle: saline with Tween-80) was 95 % of control, the T/C (dose: 200.0 mg/kg/injection, schedule: Q04DX003 (ip), vehicle: saline with Tween-80) was 91 % of control and the T/C (dose: 400.0 mg/kg/injection, schedule: Q04DX003 (ip), vehicle: saline with Tween-80) was 100 % of control.

Reference: PubChem BioAssay AID248 (DTP/NCI, 2004)
